ChEMBL document CHEMBL4354883, “Design, Synthesis, and Biological Evaluation of HSP90 Inhibitor-SN38 Conjugates for Targeted Drug Accumulation” (J Med Chem, 2020)
Calls of active or inactive are those of the source. The rule behind the calls is not given here.

Experiments:
[1] = Drug uptake in human A549 cells assessed as blue fluorescence at 5 uM after 12 hrs by confocal laser scanning microscopic analysis; assay type: ADME, cell-based; details: a549, 12 h
[2] = Drug uptake in human A549 cells assessed as eHSP90-mediated total cellular drug internalization at 5 uM after 12 hrs by LC-MS/MS analysis; assay type: ADME, cell-based; details: a549, 12 h
[3] = Half life in mouse plasma at 25 uM by HPLC analysis; assay type: ADME, cell-free
Heat shock protein HSP90 [4] = molecular target: T1, Heat shock protein HSP90 (Homo sapiens, UniProt P07900+P08238); assay: Inhibition of HSP90 in human HCT116 cells assessed as upregulation of HSP70 expression at 0.04 to 5 uM after 24 hrs by Western blot analysis; assay type: cell-based
[5] = Clearance in BALB/c mouse at 50 mg/kg, iv after 5 to 24 hrs by LC-MS/MS analysis; assay type: ADME, organism-based; details: in vivo
Heat shock protein HSP90 [6] = molecular target: T1, Heat shock protein HSP90; assay: Inhibition of HSP90 in human A549 cells assessed as downregulation of AKT protein expression after 24 hrs by Western blot analysis; assay type: cell-based
Heat shock protein HSP90 [7] = molecular target: T1, Heat shock protein HSP90; assay: Inhibition of HSP90 in human A549 cells assessed as upregulation of HSP70 expression at 0.04 to 5 uM after 24 hrs by Western blot analysis; assay type: cell-based
[8] = Half life in BALB/c mouse at 50 mg/kg, iv after 5 to 24 hrs by LC-MS/MS analysis; assay type: ADME, organism-based; details: in vivo
[9] = Toxicity in mouse xenografted with human HCT116 cells assessed as body weight loss at 50 mg/kg, iv for 5 consecutive days per week and measured every 3 to 4 days up to 14 days relative to control; assay type: organism-based; details: in vivo
[10] = Drug uptake in human A549 cells assessed as blue shift in absorption spectrum at 5 uM by UV-visible absorption spectral analysis; assay type: ADME, cell-based; details: a549, 5 µM
[11] = Drug uptake in human A549 cells assessed as endocytosis-mediated total cellular drug internalization at 5 uM after 12 hrs by LC-MS/MS analysis relative to SN38; assay type: ADME, cell-based; details: a549, 12 h
[12] = Apparent volume of distribution at steady state in BALB/c mouse at 50 mg/kg, iv after 5 to 24 hrs by LC-MS/MS analysis; assay type: ADME, organism-based; details: in vivo, read-out: Vdss(app)
[13] = Half life of compound in PBS buffer at pH 6.0 at 50 uM by HPLC analysis; assay type: physicochemical
[14] = Intrinsic clearance in human liver microsomes at 1 uM preincubated for 5 mins followed by NADPH addition and measured up to 360 mins by LC-MS/MS analysis; assay type: ADME, Microsome; details: 6 h
HCT-116 [15] = assay: Antiproliferative activity against human HCT116 cells assessed as reduction in cell viability after 72 hrs by SRB assay; assay type: functional, cell-based; details: HCT-116, 72 h
MIA PaCa-2 = assay: Antiproliferative activity against human MIAPaCa2 cells assessed as reduction in cell viability after 72 hrs by SRB assay; assay type: functional, cell-based; details: MIA PaCa-2, 72 h
[16] = molecular target: T2, DNA topoisomerase 1 (Homo sapiens) (UniProt P11387); assay: Inhibition of topoisomerase 1 in human A549 cells assessed as increase in phosphorylated KAP1 expression after 24 hrs by Western blot analysis; assay type: cell-based
T2 sequence (whole entry): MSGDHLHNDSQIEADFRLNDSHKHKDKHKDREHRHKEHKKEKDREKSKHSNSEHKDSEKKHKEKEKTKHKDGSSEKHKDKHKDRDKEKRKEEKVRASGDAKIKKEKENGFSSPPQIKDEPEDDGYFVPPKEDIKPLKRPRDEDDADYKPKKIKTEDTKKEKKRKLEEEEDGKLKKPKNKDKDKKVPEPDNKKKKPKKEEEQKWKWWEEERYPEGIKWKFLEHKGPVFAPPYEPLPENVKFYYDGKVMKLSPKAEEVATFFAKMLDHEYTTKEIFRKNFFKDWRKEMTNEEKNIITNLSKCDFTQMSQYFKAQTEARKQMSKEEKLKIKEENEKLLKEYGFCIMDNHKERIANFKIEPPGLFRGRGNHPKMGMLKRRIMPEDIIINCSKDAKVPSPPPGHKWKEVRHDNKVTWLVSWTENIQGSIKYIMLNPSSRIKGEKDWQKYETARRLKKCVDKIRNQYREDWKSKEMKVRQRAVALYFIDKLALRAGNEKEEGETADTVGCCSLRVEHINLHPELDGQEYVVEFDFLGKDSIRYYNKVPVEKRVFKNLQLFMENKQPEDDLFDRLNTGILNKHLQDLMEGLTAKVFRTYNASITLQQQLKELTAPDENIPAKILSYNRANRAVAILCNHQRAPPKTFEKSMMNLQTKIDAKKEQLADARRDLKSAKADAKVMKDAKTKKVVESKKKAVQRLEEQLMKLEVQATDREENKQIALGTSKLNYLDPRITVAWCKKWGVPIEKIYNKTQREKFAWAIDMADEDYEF

[17] = Half life in human liver microsomes at 1 uM preincubated for 5 mins followed by NADPH addition and measured up to 360 mins by LC-MS/MS analysis; assay type: ADME, Microsome
HCT-116 [18] = assay: Downregulation of TOP1 expression in human HCT116 cells after 24 hrs by Western blot analysis; assay type: functional, cell-based
Heat shock protein HSP90 [19] = molecular target: T1, Heat shock protein HSP90; assay: Drug uptake in human A549 cells assessed as eHSP90-mediated drug internalization by measuring blue fluorescence in PBS solution at 5 uM after 1 to 12 hrs by confocal laser scanning microscopic analysis; assay type: ADME, cell-based; details: a549, 5 µM, TDE = time-dependent effect
[20] = Half life of compound in PBS buffer at pH 7.4 at 50 uM by HPLC analysis; assay type: physicochemical
A549 [21] = assay: Ratio of prodrug release in human A549 cells assessed as increase in 7-ethyl-10-hydroxycamptothecin level at 5 uM after 12 hrs by LC-MS/MS analysis to prodrug release in human A549 cells assessed as increase in 7-ethyl-10-hydroxycamptothecin level at 5 uM after 1 hr by LC-MS/MS analysis; assay type: ADME, cell-based; details: a549, 5 µM
L02 = assay: Cytotoxicity agains human HL7702 cells assessed as reduction in cell viability after 72 hrs by SRB assay; assay type: cell-based; details: L02, 72 h
Heat shock protein HSP90 [22] = molecular target: T1, Heat shock protein HSP90; assay: Inhibition of HSP90 in human HCT116 cells assessed as downregulation of AKT protein expression after 24 hrs by Western blot analysis; assay type: cell-based
A549 [23] = assay: Antiproliferative activity against human A549 cells assessed as reduction in cell viability after 72 hrs by SRB assay; assay type: functional, cell-based; details: A549, 72 h
[24] = Half life in human plasma at 25 uM by HPLC analysis; assay type: ADME, cell-free
A549 [25] = assay: Downregulation of TOP1 expression in human A549 cells after 24 hrs by Western blot analysis; assay type: functional, cell-based
[26] = Drug uptake in human A549 cells assessed as maximum emission peaks at 430 nm at 5 uM by fluorescence emission spectral analysis; assay type: ADME, cell-based; details: a549, 5 µM
CAPAN-1 [27] = assay: Induction of cell cycle arrest in human Capan1 cells assessed as accumulation at G2/M phase after 24 hrs by RNase A/PI-staining based flow cytometric analysis; assay type: functional
[28] = AUC(0 to infinity) in BALB/c mouse at 50 mg/kg, iv after 5 to 24 hrs by LC-MS/MS analysis; assay type: ADME, organism-based; parameters: dose 50 mg/kg, route intravenous, time infinity; details: in vivo
[29] = Drug uptake in human A549 cells assessed as endocytosis-mediated total cellular drug internalization at 5 uM after 12 hrs by LC-MS/MS analysis relative to irinotecan; assay type: ADME, cell-based; details: a549, 12 h
[30] = molecular target: Heat shock protein HSP 90-alpha (Homo sapiens, UniProt P07900); assay: biochemical
Description: Inhibition of recombinant human full length HSP90 alpha expressed in Escherichia coli cells after 1 hr by fluorescence polarization assay

[31] = Metabolic stability in human liver microsomes assessed as compound remaining at 1 uM preincubated for 5 mins followed by NADPH addition and measured after 60 mins by LC-MS/MS analysis; assay type: ADME, Microsome; details: read-out: Stability
CAPAN-1 [32] = assay: Antiproliferative activity against human Capan1 cells assessed as reduction in cell viability after 72 hrs by SRB assay; assay type: functional, cell-based; details: CAPAN-1, 72 h
A549 [33] = assay: Induction of cell cycle arrest in human A549 cells assessed as accumulation at G2/M phase after 24 hrs by RNase A/PI-staining based flow cytometric analysis; assay type: functional
[34] = molecular target: T2, DNA topoisomerase 1 (Homo sapiens); assay: Inhibition of topoisomerase 1 in human HCT116 cells assessed as increase in phosphorylated KAP1 expression after 24 hrs by Western blot analysis; assay type: cell-based
HCT-116 [35] = assay: Induction of cell cycle arrest in human HCT116 cells assessed as accumulation at G2/M phase after 24 hrs by RNase A/PI-staining based flow cytometric analysis; assay type: functional
HCT-116 [36] = details: Homo sapiens, 0.2 uM
Description: Downregulation of TOP1 expression in human HCT116 cells at 0.2 uM after 24 hrs by Western blot analysis

CAPAN-1 [37] = details: Homo sapiens, 28 mg/kg
Description: Antitumor activity against human Capan1 cells xenografted in mouse assessed as reduction in tumor weight at 28 mg/kg, iv for every 2 days and measured twice per week by caliper method

HCT-116 [38] = assay: Antitumor activity against human HCT116 cells xenografted in mouse assessed as reduction in tumor volume at 50 mg/kg, iv for 5 consecutive days per week and measured every 3 to 4 days up to 14 days by microcaliper analysis relative to control; assay type: functional
Mus musculus [39] = species: Mus musculus; details: 28 mg/kg
Description: In vivo inhibition of HSP90 in mouse xenografted with human Capan1 cells assessed as decrease in AKT protein expression at 28 mg/kg, iv for every 2 days measured at 2 hrs post last dose by Western blot analysis

Mus musculus [40] = species: Mus musculus; details: 28 mg/kg; remark: listed apart in the source
Description: In vivo inhibition of HSP90 in mouse xenografted with human Capan1 cells assessed as increase in HSP70 protein expression at 28 mg/kg, iv for every 2 days measured at 2 hrs post last dose by Western blot analysis

A549 [41] = details: Homo sapiens, 0.2 uM
Description: Downregulation of TOP1 expression in human A549 cells at 0.2 uM after 24 hrs by Western blot analysis

CAPAN-1 [42] = assay: Antitumor activity against human Capan1 cells xenografted in mouse assessed as reduction in tumor volume at 28 mg/kg, iv for every 2 days and measured twice per week by microcaliper method relative to control; assay type: functional

CCc1c2c(nc3ccc(O)cc13)-c1cc3c(c(=O)n1C2)COC(=O)[C@@]3(CC)OC(=O)CCNC(=O)c1noc(-c2cc(C(C)C)c(O)cc2O)c1-c1ccc(CN2CCOCC2)cc1
Drug uptake [1]: Active
Drug uptake [2]: Active
half-life at 25 µM [3]: 17 h
inhibition (Heat shock protein HSP90 [4]): Active
clearance [5]: 5.51 mL/min/kg
inhibition (Heat shock protein HSP90 [6]): Dose-dependent effect
inhibition (Heat shock protein HSP90 [7]): Active
half-life [8]: 1.51 h
Activity [9]: < 20%
Drug uptake [10]: Active
fold change (FC) [11]: 1.6 to 1.9
Vd [12]: 0.1 L/kg
half-life at 50 µM [13]: > 24 h
CLH [14]: 5.3 mL/min/kg
IC50 (HCT-116 [15]): 83 nM
IC50 (MIA PaCa-2): 205 nM
inhibition [16]: Dose-dependent effect
half-life at 1 µM [17]: 2.4 h
inhibition (HCT-116 [18]): Dose-dependent effect
Drug uptake (Heat shock protein HSP90 [19]): Tde
half-life at 50 µM [20]: 14 h
Ratio (A549 [21]): 4.3
IC50 (L02): 7890 nM
inhibition (Heat shock protein HSP90 [22]): Dose-dependent effect
IC50 (A549 [23]): 324 nM
half-life at 25 µM [24]: > 24 h
TOP1 downregulation (A549 [25]): Dose-dependent effect
Drug uptake [26]: Active
Activity (CAPAN-1 [27]): Dose-dependent effect
AUC(0-inf) [28]: 151 µg·h/mL
fold change (FC) [29]: 2.8 to 3.8
IC50 [30]: 70 nM
remaining at 1 h, 1 µM [31]: 75%
IC50 (CAPAN-1 [32]): 206 nM
Activity (A549 [33]): Dose-dependent effect
inhibition [34]: Dose-dependent effect
Activity (HCT-116 [35]): Dose-dependent effect

CCc1c2c(nc3ccc(OC(=O)N4CCC(NC(=O)CNc5cc(-n6nc(C(F)(F)F)c7c6CC(C)(C)CC7=O)ccc5C(N)=O)CC4)cc13)-c1cc3c(c(=O)n1C2)COC(=O)[C@]3(O)CC
half-life at 25 µM [3]: > 24 h
half-life at 50 µM [13]: > 24 h
half-life at 50 µM [20]: > 24 h
half-life at 25 µM [24]: > 24 h
IC50 [30]: 1260 nM

CCNC(=O)c1noc(-c2cc(C(C)C)c(O)cc2O)c1-c1ccc(CN2CCOCC2)cc1 [LUMINESPIB]
inhibition (HCT-116 [36]): Active
inhibition (CAPAN-1 [37]): Active
IC50 (HCT-116 [15]): 121 nM
IC50 (MIA PaCa-2): 38 nM
T/C (HCT-116 [38]): 49.9%
IC50 (L02): 1360 nM
inhibition (Mus musculus [39]): Active
IC50 (A549 [23]): 39 nM
inhibition (Mus musculus [40]): Active
inhibition (A549 [41]): Active
IC50 (CAPAN-1 [32]): 657 nM
T/C (CAPAN-1 [42]): 57.03%
